The text below walks through data of patent US7812022B2 (GlaxoSmithKline LLC, priority 2004, dated 2010).

As a reminder, the IC50 is the concentration needed to halve the response being measured.

In assay [1] the target is T1, ErbB2 or EGFR.
T1 construct: enzymes purified from a baculovirus expression system; Reagent production was conducted essentially as described in Brignola, P. S., et al, (2002) J. Biol. Chem. 277(2): 1576-1585
The experiment in a line: ErbB family substrate phosphorylation enzyme assay (HTRF), Method A or Method B. It counts as biochemical. Summed up: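 Baculovirus-expressed EGFR or ErbB2 (0.8 or 10 nM in enzyme mix) phosphorylates biotinylated Peptide C with 20 µM ATP and 0.8 µM peptide (substrate-mix levels), MnCl2, pH 7.5. Reaction ran 90 min at 20 °C with EDTA stop and HTRF anti-phosphotyrosine read. Method A: enzyme added last; Method B: 1 h enzyme–compound preincubation.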
In general terms: In TR-FRET formats the signal depends on donor and acceptor labels being close together.

Assay [2] deals with BT474 and HN5 tumor cell lines. Kind of assay: Methylene blue growth inhibition assay (cellular Method A). It counts as cell-based, Human. The settings on record: 3 days, read-out: Activity (Method): growth inhibition IC50 class. The method, boiled down:
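Colo205, BT474 and HN5 cells in DMEM/10% FBS (BT474 10,000, HN5 3,000 cells/well) treated next day with compound in DMEM, 0.3% final DMSO, for 3 days at 37° C. Biomass stained with methylene blue, solubilized, read at OD 620; IC50 interpolated by nonlinear regression from % inhibition versus vehicle.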

Setting [3] is: Method B: enzyme mix pre-incubated with compound 1 hour at 20° C., started with substrate mix.
Where [4] appears, read: Method A: substrate mix added first, reaction started with enzyme mix.

Read-outs that look alike come from different tables or passages of the source.

Regarding `O=C(Nc1cccc(-c2nn3ccccc3c2-c2ccnc(Nc3cccc(F)c3)n2)c1)c1ccccc1F` [Example 12, 2-Fluoro-N-(3-{3-[2-(3-fluoro-phenylamino)-pyrimidin-4-yl]-pyrazolo[1,5-a]pyridin-2-yl}-phenyl)-benzamide], the “Activity (Method): pIC50 class against ErbB2 or EGFR” value (“Activity (Method): pIC50 class” for short) in assay [1] (setting [3]) is “++ (B) (at least one pIC50 measurement greater than 6 against either ErbB2 or EGFR but no measurement greater than pIC50 of 7)”. Besides, the IC50 in assay [2] (Homo sapiens, BT-474, 72 h) was less than 100 nM.

`N#Cc1cccc(Nc2nccc(-c3c(-c4cccc(NC(=O)c5cc(F)ccc5F)c4)nn4ccccc34)n2)c1` [Example 48, N-[3-(3-{2-[(3-Cyanophenyl)amino]-4-pyrimidinyl}pyrazolo[1,5-a]pyridin-2-yl)phenyl]-2,5-difluorobenzamide]: the “Activity (Method): pIC50 class” value in assay [1] (setting [4]) is “+++ (A) (at least one pIC50 measurement of greater than 7 against either ErbB2 or EGFR)”. Besides, the IC50 in assay [2] (Homo sapiens, BT-474, 72 h) was less than 100 nM.

In the case of `Cn1cccc1C(=O)Nc1cccc(-c2nn3ccccc3c2-c2ccnc(Nc3ccccc3)n2)c1` [Example 149, N-{3-[3-(2-phenylamino-4-pyrimidinyl)-pyrazolo[1,5-b]pyridin-2-yl]phenyl}-1-methyl-1H-pyrrole-2-carboxamide], the “Activity (Method): pIC50 class” value in assay [1] (setting [4]) is recorded as “++ (A) (at least one pIC50 measurement greater than 6 against either ErbB2 or EGFR but no measurement greater than pIC50 of 7)”. For the same compound, the IC50 in assay [2] (Homo sapiens, BT-474, 72 h) is 100 to 1000 nM.

Take `O=C(Nc1cccc(-c2nn3ccccc3c2-c2ccnc(Nc3cccc(C(F)(F)F)c3)n2)c1)c1c(F)cccc1F` [Example 33, 2,6-Difluoro-N-{3-[3-(2-{[3-(trifluoromethyl)phenyl]-amino}-4-pyrimidinyl)pyrazolo[1,5-a]pyridin-2-yl]phenyl}benzamide]: the “Activity (Method): pIC50 class” value in assay [1] (setting [4]) was “+++ (A) (at least one pIC50 measurement of greater than 7 against either ErbB2 or EGFR)”. In assay [2] (Homo sapiens, BT-474, 72 h), the IC50 lay within 100 to 1000 nM.

As for `O=C(Nc1cccc(-c2nn3ccccc3c2-c2ccnc(Nc3cccc(F)c3)n2)c1)c1c(F)ccc(F)c1Cl` [Example 21, 2-Chloro-3,6-difluoro-N-(3-{3-[2-(3-fluoro-phenylamino)-pyrimidin-4-yl]-pyrazolo[1,5-a]pyridin-2-yl}-phenyl)-benzamide], in assay [1] (setting [3]), the “Activity (Method): pIC50 class” value was “+++ (B) (at least one pIC50 measurement of greater than 7 against either ErbB2 or EGFR)”. Also, the half-inhibitory concentration (IC50) in assay [2] (Homo sapiens, BT-474, 72 h) lay within 100 to 1000 nM.

On to `O=C(Nc1cccc(-c2nn3ccccc3c2-c2ccnc(Nc3ccccc3)n2)c1)c1cccs1` [Example 139], for which, in assay [1] (setting [4]), the “Activity (Method): pIC50 class” value was “++ (A) (at least one pIC50 measurement greater than 6 against either ErbB2 or EGFR but no measurement greater than pIC50 of 7)”. Also, the IC50 in assay [2] (Homo sapiens, BT-474, 72 h) was in the range of 100 to 1000 nM.

For the compound “N-[3-(3-{2-[4-(4-Cyanophenyl)phenylamino]-4-pyrimidinyl}-7-trifluoropyrazolo[1,5-b]pyridin-2-yl)phenyl]-2,6-difluorobenzamide [Example 93]”, the “Activity (Method): pIC50 class” value in assay [1] (setting [4]) is listed as “++ (A) (at least one pIC50 measurement greater than 6 against either ErbB2 or EGFR but no measurement greater than pIC50 of 7)”. For the same compound, the concentration for half-maximal inhibition (IC50) in assay [2] fell in the range of 100 to 1000 nM.

For `O=C(Nc1cccc(-c2nn3ccccc3c2-c2ccnc(Nc3ccc(C(=O)N4CCOCC4)cc3)n2)c1)c1c(F)cccc1F` [Example 100, 2,6-Difluoro-N-{3-[3-(2-{[4-(4-morpholinylcarbonyl)-phenyl]amino}-4-pyrimidinyl)pyrazolo[1,5-a]pyridin-2-yl]phenyl}benzamide], in assay [1] (setting [4]), the “Activity (Method): pIC50 class” value was “+++ (A) (at least one pIC50 measurement of greater than 7 against either ErbB2 or EGFR)”. Also, the IC50 in assay [2] (Homo sapiens, BT-474, 72 h) was less than 100 nM.

As for `Cc1cc(C(=O)Nc2cccc(-c3nn4ccccc4c3-c3ccnc(Nc4cccc(F)c4)n3)c2)n(C)n1` [Example 23, N-[3-(3-{2-[(3-Fluorophenyl)amino]-4-pyrimidinyl}pyrazolo[1,5-a]pyridin-2-yl)phenyl]-1,3-dimethyl-1H-pyrazole-5-carboxamide], the “Activity (Method): pIC50 class” value in assay [1] (setting [3]) is reported as “++ (B) (at least one pIC50 measurement greater than 6 against either ErbB2 or EGFR but no measurement greater than pIC50 of 7)”. For the same compound, the IC50 in assay [2] (Homo sapiens, BT-474, 72 h) was greater than 1000 nM.

On to `O=C(Nc1cccc(-c2nn3ccccc3c2-c2ccnc(Nc3cccc(F)c3)n2)c1)c1sccc1Br` [Example 80, 3-Bromo-N-[3-(3-{2-[(3-fluorophenyl)amino]-4-pyrimidinyl}pyrazolo[1,5-a]pyridin-2-yl)phenyl]-2-thiophenecarboxamide], for which the “Activity (Method): pIC50 class” value in assay [1] (setting [3]) was “++ (B) (at least one pIC50 measurement greater than 6 against either ErbB2 or EGFR but no measurement greater than pIC50 of 7)”. Besides, the IC50 in assay [2] (Homo sapiens, BT-474, 72 h) was 100 to 1000 nM.

As to `O=C(Nc1cccc(-c2nn3ccccc3c2-c2ccnc(Nc3ccccc3)n2)c1)c1ccco1` [Example 137, Furan-2-carboxylic acid {3-[3-(2-phenylamino-pyrimidin-4-yl)-pyrazolo[1,5-a]pyridin-2-yl]-phenyl}-amide], the “Activity (Method): pIC50 class” value in assay [1] (setting [4]) is on record as “+++ (A) (at least one pIC50 measurement of greater than 7 against either ErbB2 or EGFR)”. The IC50 in assay [2] (Homo sapiens, BT-474, 72 h) was in the range of 100 to 1000 nM.

On to `Cc1ccsc1C(=O)Nc1cccc(-c2nn3ccccc3c2-c2ccnc(Nc3cccc(F)c3)n2)c1` [Example 77, N-[3-(3-{2-[(3-fluorophenyl)amino]-4-pyrimidinyl}pyrazolo[1,5-a]pyridin-2-yl)phenyl]-3-methyl-2-thiophenecarboxamide], for which the “Activity (Method): pIC50 class” value in assay [1] (setting [3]) is on record as “+++ (B) (at least one pIC50 measurement of greater than 7 against either ErbB2 or EGFR)”. Moreover, the IC50 in assay [2] (Homo sapiens, BT-474, 72 h) was in the range of 100 to 1000 nM.

For `Cc1cccc2c(-c3ccnc(Nc4cccc(C(F)(F)F)c4)n3)c(-c3cccc(NC(=O)c4c(F)cccc4F)c3)nn12` [Example 155, 2,6-Difluoro-N-{3-[7-methyl-3-(2-{[3-(trifluoro-methyl)phenyl]amino}pyrimidin-4-yl)pyrazolo[1,5-a]pyridin-2-yl]phenyl}benzamide], the “Activity (Method): pIC50 class” value in assay [1] (setting [4]) is on record as “++ (A) (at least one pIC50 measurement greater than 6 against either ErbB2 or EGFR but no measurement greater than pIC50 of 7)”. For the same compound, in assay [2] (Homo sapiens, BT-474, 72 h), the IC50 fell in the range of 100 to 1000 nM.

In the case of `O=C(Nc1cccc(-c2nn3ccccc3c2-c2ccnc(Nc3ccccc3)n2)c1)c1cccnc1` [Example 138, N-{3-[3-(2-Phenylamino-pyrimidin-4-yl)-pyrazolo[1,5-a]pyridin-2-yl]-phenyl}-nicotinamide], the “Activity (Method): pIC50 class” value in assay [1] (setting [4]) is given as “+++ (A) (at least one pIC50 measurement of greater than 7 against either ErbB2 or EGFR)”. Also, the IC50 in assay [2] (Homo sapiens, BT-474, 72 h) is 100 to 1000 nM.

With `O=C(Nc1cccc(-c2nn3ccccc3c2-c2ccnc(Nc3cccc(F)c3)n2)c1)c1cnc2ccccc2n1` [Example 24, N-[3-(3-{2-[(3-Fluorophenyl)amino]-4-pyrimidinyl}pyrazolo[1,5-a]pyridin-2-yl)phenyl]-2-quinoxalinecarboxamide], the “Activity (Method): pIC50 class” value in assay [1] (setting [3]) was “+ (B) (no pIC50 measurement greater than 6 against either ErbB2 or EGFR)”. The IC50 in assay [2] (Homo sapiens, BT-474, 72 h) was greater than 1000 nM.

For `CN(C)CC(=O)Nc1ccc(Nc2nccc(-c3c(-c4cccc(NC(=O)c5c(F)cccc5F)c4)nn4ccccc34)n2)cc1` [Example 113, N-(3-{3-[2-({4-[(N,N-dimethylglycyl)amino]phenyl}-amino)-4-pyrimidinyl]pyrazolo[1,5-a]pyridin-2-yl}phenyl)-2,6-difluorobenzamide], in assay [1] (setting [3]), the “Activity (Method): pIC50 class” value is “+++ (B) (at least one pIC50 measurement of greater than 7 against either ErbB2 or EGFR)”. In addition, the IC50 in assay [2] (Homo sapiens, BT-474, 72 h) is less than 100 nM.

For the compound `N#Cc1cc(Nc2nccc(-c3c(-c4cccc(NC(=O)c5c(F)cccc5F)c4)nn4ccccc34)n2)ccc1F` [Example 88], the “Activity (Method): pIC50 class” value in assay [1] (setting [4]) was “+++ (A) (at least one pIC50 measurement of greater than 7 against either ErbB2 or EGFR)”. For the same compound, the IC50 in assay [2] (Homo sapiens, BT-474, 72 h) was less than 100 nM.

`Cc1noc(C)c1C(=O)Nc1cccc(-c2nn3ccccc3c2-c2ccnc(Nc3cccc(F)c3)n2)c1` [Example 38, N-[3-(3-{2-[(3-fluorophenyl)amino]-4-pyrimidinyl}-pyrazolo[1,5-a]pyridin-2-yl)phenyl]-3,5-dimethyl-4-isoxazolecarboxamide]: the “Activity (Method): pIC50 class” value in assay [1] (setting [3]) is listed as “+++ (B) (at least one pIC50 measurement of greater than 7 against either ErbB2 or EGFR)”. The IC50 in assay [2] (Homo sapiens, BT-474, 72 h) is 100 to 1000 nM.

For the compound `O=C(Nc1cccc(-c2nn3ccccc3c2-c2ccnc(Nc3cccc(F)c3)n2)c1)c1ccnc(Cl)c1` [Example 73, 2-Chloro-N-[3-(3-{2-[(3-fluorophenyl)amino]-4-pyrimidinyl}pyrazolo[1,5-a]pyridin-2-yl)phenyl]-4-pyridinecarboxamide], in assay [1] (setting [3]), the “Activity (Method): pIC50 class” value is given as “++ (B) (at least one pIC50 measurement greater than 6 against either ErbB2 or EGFR but no measurement greater than pIC50 of 7)”. Further, the IC50 in assay [2] (Homo sapiens, BT-474, 72 h) was greater than 1000 nM.

In the case of `COCCOc1ccc(Nc2nccc(-c3c(-c4cccc(NC(=O)c5c(F)cccc5F)c4)nn4ccccc34)n2)cc1Cl` [Example 125, N-[3-(3-{2-[(3-Chloro-4-{[2-(methyloxy)ethyl]oxy}-phenyl)amino]-4-pyrimidinyl}pyrazolo[1,5-a]pyridin-2-yl)phenyl]-2,6-difluorobenzamide], the “Activity (Method): pIC50 class” value in assay [1] (setting [4]) is listed as “+++ (A) (at least one pIC50 measurement of greater than 7 against either ErbB2 or EGFR)”. In addition, the IC50 in assay [2] (Homo sapiens, BT-474, 72 h) is less than 100 nM.
